Assay results as given in article PMC6194023 (Cell Death & Disease, 2018).

How the values were obtained:
PLK1 [1] = molecular target: T1, PLK1 (Homo sapiens, UniProt P53350); assay: kinase activity in vitro; type: biochemical
NEK2 = NEK2 (Homo sapiens, UniProt P51955); assay: kinase activity in vitro; type: biochemical
[2] = tested on: MDA-MB-231 tumor xenograft; conditions: MDA-MB-231 xenograft, 90 mg/kg p.o. every day
TTBK2 = TTBK2 (Homo sapiens, UniProt Q6IQ55); assay: kinase activity in vitro; type: biochemical
[3] = tested on: MDA-MB-468 and MDA-MB-231; assay: centriole number by immunofluorescence (centrin 2, γ-tublin); type: cell-based, human; conditions: 24 h
Description: Tumor cells were seeded in Millicell EZ SLIDE 8 well glass slide (Millipore, Ireland) at the density of 2 × 10^4 per well. […] Then cells were incubated with primary antibody overnight at 4 ℃ after blocked with 1% BSA. Goat anti-rabbit and goat anti-mouse secondary antibodies conjugated to FITC and […] were used to detect primary antibodies. Cell nucleuses were stained with DAPI. Images were taken using a Leica cofocusing microscope.

[4] = tested on: MDA-MB-468 tumor xenograft; conditions: MDA-MB-468 xenograft, 90 mg/kg p.o. every day
PLK2 [5] = molecular target: T2, PLK2 (Homo sapiens, UniProt Q9NYY3); assay: kinase activity in vitro; type: biochemical
T2 construct: made in house; host or cells: T7 phage in E. coli (BL21-derived) or HEK-293 cells

ERBB2/HER2 = ERBB2/HER2 (Homo sapiens, UniProt P04626); assay: kinase activity in vitro; type: biochemical
PLK1 [6] = molecular target: T1, PLK1; assay: competition binding constant assay
Description: (§3) Kinases were produced in HEK-293 cells and subsequently tagged with DNA for quantitative polymerase chain reaction (qPCR) detection. […] The beads were blocked with excess biotin and washed with blocking buffer (SeaBlock, 1% bovine serum albumin, 0.05% Tween-20, 1 mM dithiothreitol (DTT)). […] The kinase concentration in the eluates was measured by qPCR.

sub-acute toxicity test = type: in vivo, BALB/c mice; conditions: single oral dose 1 g/kg, observed 15 days
Description: Then blood of the mice was obtained for serum biochemistry and hematological analysis using a Hitachi 7200 Blood Chemistry Analyzer and a Nihon Kohdern MEK-5216K Automatic Hematology Analyzer. The heart, liver, spleen, lung and kidney were fixed and routinely processed and embedded in paraﬃn for hematoxylin and eosin (H&E) staining analysis.

MDA-MB-231 xenografts = assay: immunohistochemical analysis of tumor tissues; conditions: MDA-MB-231 tumor tissue
Description: Tumor tissues obtained from the animal models were immersed in 4% paraformaldehyde. After washing with running tap water overnight, the tissues dehydrated trough a serial alcohol gradient and embedded in paraffin, Paraffin-embedded tumor sections were stained with primary antibodies (Ki67, cleaved caspase-3, p21, CDC25C, CyclinB1) using the DAB Detection Kit. The images were captured with a Carl Zeiss digital camera attached to a light microscope.

TTBK1 = TTBK1 (Homo sapiens, UniProt Q5TCY1); assay: kinase activity in vitro; type: biochemical
PLK3 [7] = molecular target: T3, PLK3 (Homo sapiens, UniProt Q9H4B4); assay: kinase activity in vitro; type: biochemical
PLK3 [8] = molecular target: T3, PLK3; assay: competition binding constant assay
Description: as §3

EGFR = EGFR (Homo sapiens, UniProt P00533); assay: kinase activity in vitro; type: biochemical
PLK2 [9] = molecular target: T2, PLK2; assay: competition binding constant assay
Description: as §3

FGFR1 = FGFR1 (Homo sapiens, UniProt P11362); assay: kinase activity in vitro; type: biochemical
breast xenograft models = assay: breast tumor xenograft models (overall, tolerability); type: in vivo, BALB/c nude mice
MCF-7 tumor xenograft = conditions: MCF-7 xenograft, 90 mg/kg p.o. every day
MDA-MB-231 [10] = assay: mitotic catastrophe, nuclear staining; type: cell-based, human; conditions: MDA-MB-231, 0.5 μM, 30 h
Description: (§1) Then treated tumor cells were washed with PBS and stain with Hoechst 33342 in the dark for 15 min. Image were taken by fluorescence microscopy for morphological changes after YLT-11 treatment.

MDA-MB-468 [11] = assay: mitotic catastrophe, nuclear staining; type: cell-based, human; conditions: MDA-MB-468, 0.5 μM, 30 h
Description: as §1

JNK2 = JNK2 (Homo sapiens, UniProt P45984); assay: kinase activity in vitro; type: biochemical
Aurora A = Aurora A (Homo sapiens, UniProt O14965); assay: kinase activity in vitro; type: biochemical
MDA-MB-435 = assay: cells; conditions: Homo sapiens, MDA-MB-435, read-out: IC50 proliferation
Description: (§2) The IC50 values were calculated using the GraphPad Prism software, each assay was replicated 3 times.

MCF-7 = assay: cells; conditions: Homo sapiens, MCF7, read-out: IC50 proliferation
Description: as §2

BT549 = assay: cells; conditions: Homo sapiens, BT-549, read-out: IC50 proliferation
Description: as §2

MCF-10A = assay: cells; conditions: Homo sapiens, read-out: IC50 proliferation
Description: as §2

ZR-75-1 = assay: cells; conditions: Homo sapiens, ZR-75-1, read-out: IC50 proliferation
Description: as §2

MDA-MB-453 = assay: cells; conditions: Homo sapiens, MDA-MB-453, read-out: IC50 proliferation
Description: as §2

MDA-MB-231 [12] = assay: cells; conditions: Homo sapiens, MDA-MB-231, read-out: IC50 proliferation
Description: as §2

MDA-MB-468 [13] = assay: cells; conditions: Homo sapiens, MDA-MB-468, read-out: IC50 proliferation
Description: as §2

BT474 = assay: cells; conditions: Homo sapiens, BT-474, read-out: IC50 proliferation
Description: as §2

SKBR-3 = assay: cells; conditions: Homo sapiens, SK-BR-3, read-out: IC50 proliferation
Description: as §2

TNBC cell lines = assay: cells; conditions: Homo sapiens, read-out: IC50 proliferation, range over TNBC cell lines
Description: as §2

MDA-MB-436 = assay: cells; conditions: Homo sapiens, MDA-MB-436, read-out: IC50 proliferation
Description: as §2

HCC1954 = assay: cells; conditions: Homo sapiens, HCC1954, read-out: IC50 proliferation
Description: as §2

ZR-75-30 = assay: cells; conditions: Homo sapiens, ZR-75-30, read-out: IC50 proliferation
Description: as §2

TOPK = TOPK (Homo sapiens, UniProt Q96KB5); assay: kinase activity in vitro; type: biochemical
TOPK, sequence (Q96KB5 whole entry): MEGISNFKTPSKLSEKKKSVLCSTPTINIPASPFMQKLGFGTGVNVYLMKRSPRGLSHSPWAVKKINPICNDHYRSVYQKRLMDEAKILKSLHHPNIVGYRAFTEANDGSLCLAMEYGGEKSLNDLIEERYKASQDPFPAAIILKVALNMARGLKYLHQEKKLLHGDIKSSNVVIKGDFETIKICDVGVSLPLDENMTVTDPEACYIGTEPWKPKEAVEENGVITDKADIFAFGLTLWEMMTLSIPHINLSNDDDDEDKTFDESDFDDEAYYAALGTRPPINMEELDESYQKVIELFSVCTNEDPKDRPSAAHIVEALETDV

T3 sequence (Q9H4B4 whole entry): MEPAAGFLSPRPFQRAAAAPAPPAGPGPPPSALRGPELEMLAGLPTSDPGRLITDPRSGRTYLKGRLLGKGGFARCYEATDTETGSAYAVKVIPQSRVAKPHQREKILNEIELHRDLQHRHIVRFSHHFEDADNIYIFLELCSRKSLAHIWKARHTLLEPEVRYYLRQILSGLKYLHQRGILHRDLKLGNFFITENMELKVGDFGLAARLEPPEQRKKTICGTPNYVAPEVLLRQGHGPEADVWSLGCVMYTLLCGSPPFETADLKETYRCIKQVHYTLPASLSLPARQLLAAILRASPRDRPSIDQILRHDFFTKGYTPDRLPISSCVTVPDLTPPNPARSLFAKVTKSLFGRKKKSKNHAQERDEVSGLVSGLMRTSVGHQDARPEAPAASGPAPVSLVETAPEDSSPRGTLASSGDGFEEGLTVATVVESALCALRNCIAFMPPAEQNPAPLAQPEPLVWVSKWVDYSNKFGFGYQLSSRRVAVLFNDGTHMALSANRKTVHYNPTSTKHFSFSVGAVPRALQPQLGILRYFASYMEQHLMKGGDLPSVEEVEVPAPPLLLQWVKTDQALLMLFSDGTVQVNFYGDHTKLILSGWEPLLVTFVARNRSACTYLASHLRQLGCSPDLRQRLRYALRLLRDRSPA
T2 sequence (Q9NYY3 whole entry): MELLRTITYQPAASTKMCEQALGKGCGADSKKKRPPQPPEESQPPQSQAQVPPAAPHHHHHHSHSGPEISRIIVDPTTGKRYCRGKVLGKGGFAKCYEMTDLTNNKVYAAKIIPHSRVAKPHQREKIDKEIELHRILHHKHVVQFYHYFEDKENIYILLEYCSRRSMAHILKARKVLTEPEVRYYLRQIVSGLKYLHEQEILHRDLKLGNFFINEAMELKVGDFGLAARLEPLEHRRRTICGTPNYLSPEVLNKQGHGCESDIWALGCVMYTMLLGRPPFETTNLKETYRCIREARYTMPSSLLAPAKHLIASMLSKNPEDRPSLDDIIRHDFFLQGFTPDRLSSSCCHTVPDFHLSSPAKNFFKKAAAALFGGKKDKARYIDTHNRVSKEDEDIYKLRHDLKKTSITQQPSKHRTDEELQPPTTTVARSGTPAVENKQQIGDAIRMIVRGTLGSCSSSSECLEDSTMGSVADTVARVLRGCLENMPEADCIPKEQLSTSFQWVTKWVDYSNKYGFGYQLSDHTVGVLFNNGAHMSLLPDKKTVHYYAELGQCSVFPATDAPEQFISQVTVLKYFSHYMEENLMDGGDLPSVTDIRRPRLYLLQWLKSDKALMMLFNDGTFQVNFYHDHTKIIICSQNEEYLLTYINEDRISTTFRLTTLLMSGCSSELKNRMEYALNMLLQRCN
T1 sequence (P53350 whole entry): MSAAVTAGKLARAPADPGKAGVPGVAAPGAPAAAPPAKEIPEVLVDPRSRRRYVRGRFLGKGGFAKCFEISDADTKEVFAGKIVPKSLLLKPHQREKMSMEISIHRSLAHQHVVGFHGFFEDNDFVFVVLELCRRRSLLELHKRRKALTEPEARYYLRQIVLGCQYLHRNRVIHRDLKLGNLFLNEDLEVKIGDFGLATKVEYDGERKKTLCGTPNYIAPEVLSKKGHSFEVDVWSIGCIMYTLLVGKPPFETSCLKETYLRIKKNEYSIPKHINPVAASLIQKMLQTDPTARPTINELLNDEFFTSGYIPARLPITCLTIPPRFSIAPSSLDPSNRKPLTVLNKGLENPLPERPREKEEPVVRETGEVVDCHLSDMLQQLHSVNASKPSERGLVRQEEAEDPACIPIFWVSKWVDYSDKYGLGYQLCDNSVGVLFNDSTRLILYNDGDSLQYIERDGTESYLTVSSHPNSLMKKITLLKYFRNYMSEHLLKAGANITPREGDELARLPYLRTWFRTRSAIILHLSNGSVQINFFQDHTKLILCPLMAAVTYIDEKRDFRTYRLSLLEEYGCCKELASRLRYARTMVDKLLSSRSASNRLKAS
JNK2, sequence (P45984 whole entry): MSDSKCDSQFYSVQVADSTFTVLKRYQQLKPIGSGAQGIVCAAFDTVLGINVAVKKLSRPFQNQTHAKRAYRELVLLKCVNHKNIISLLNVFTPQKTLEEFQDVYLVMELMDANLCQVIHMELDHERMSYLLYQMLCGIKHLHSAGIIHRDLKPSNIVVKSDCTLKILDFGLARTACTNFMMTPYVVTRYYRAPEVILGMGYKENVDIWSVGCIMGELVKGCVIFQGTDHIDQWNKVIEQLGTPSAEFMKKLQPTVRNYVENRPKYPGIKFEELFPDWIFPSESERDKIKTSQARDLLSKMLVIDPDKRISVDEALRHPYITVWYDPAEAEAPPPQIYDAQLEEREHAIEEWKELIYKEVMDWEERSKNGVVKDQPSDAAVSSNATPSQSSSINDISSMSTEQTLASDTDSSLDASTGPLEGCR
NEK2, sequence (P51955 whole entry): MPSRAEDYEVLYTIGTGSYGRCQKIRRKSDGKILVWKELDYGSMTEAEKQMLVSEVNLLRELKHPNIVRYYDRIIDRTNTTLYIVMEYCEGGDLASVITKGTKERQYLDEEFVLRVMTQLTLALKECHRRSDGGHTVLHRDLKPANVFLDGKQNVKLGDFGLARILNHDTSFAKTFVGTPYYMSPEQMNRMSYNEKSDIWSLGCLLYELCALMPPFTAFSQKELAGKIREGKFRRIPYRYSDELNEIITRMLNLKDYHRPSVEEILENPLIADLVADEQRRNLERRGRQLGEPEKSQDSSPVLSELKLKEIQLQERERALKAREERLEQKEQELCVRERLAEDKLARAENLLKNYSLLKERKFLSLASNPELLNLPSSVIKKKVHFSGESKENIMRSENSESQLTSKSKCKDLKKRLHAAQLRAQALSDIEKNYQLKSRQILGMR
TTBK2, sequence (Q6IQ55 whole entry): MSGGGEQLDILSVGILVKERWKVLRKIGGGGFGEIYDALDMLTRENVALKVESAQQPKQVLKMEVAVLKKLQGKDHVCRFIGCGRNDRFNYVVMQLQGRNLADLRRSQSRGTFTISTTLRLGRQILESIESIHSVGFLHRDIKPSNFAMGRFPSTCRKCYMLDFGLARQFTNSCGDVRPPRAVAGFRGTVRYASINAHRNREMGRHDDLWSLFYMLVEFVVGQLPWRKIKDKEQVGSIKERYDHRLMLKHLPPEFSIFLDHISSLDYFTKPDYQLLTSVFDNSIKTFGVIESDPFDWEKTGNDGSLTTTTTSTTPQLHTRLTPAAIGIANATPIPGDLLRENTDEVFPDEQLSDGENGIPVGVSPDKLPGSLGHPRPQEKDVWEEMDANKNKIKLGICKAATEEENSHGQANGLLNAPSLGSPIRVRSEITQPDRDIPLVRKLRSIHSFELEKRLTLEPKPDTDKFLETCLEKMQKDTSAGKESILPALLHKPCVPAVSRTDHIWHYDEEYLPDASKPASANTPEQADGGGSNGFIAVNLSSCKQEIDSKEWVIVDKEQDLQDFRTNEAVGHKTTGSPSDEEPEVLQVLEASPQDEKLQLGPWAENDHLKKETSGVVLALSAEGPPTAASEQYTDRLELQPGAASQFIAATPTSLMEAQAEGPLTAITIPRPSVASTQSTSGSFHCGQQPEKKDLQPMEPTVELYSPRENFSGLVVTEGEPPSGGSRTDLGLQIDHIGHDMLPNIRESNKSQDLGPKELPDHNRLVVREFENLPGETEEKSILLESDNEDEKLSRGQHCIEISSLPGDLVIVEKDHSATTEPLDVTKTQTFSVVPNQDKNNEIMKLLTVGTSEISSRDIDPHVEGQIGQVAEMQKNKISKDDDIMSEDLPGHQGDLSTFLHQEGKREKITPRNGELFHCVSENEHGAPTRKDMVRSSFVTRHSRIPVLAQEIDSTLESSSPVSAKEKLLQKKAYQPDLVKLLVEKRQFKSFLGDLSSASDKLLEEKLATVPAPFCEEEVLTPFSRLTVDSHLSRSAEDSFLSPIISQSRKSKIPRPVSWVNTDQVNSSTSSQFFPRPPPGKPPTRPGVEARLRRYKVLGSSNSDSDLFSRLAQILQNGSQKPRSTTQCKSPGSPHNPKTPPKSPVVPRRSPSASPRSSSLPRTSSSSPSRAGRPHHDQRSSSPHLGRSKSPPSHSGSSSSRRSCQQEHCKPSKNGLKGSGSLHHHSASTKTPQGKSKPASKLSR
Aurora A, sequence (O14965 whole entry): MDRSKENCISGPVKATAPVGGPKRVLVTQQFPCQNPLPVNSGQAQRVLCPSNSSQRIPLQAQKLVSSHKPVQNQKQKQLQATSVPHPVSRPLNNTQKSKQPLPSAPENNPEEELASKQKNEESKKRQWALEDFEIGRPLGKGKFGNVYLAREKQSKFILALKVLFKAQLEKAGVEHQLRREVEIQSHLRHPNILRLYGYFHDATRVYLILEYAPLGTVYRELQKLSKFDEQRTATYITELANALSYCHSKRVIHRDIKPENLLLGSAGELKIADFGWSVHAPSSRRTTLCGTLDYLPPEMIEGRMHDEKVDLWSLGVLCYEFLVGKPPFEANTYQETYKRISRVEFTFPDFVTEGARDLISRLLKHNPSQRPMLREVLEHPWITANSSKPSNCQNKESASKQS

CC(=O)Nc1nccc(-c2ccc3c(/C=C/c4ccc(CN(C)C)cc4)n[nH]c3c2)n1 [YLT-11, (E)-N-(4-(3-(4-((dimethylamino)methyl)styryl)-1H-indazol-6-yl)pyrimidin-2-yl)acetamide]
IC50 (PLK1 [1]): 4780 nM
IC50 (NEK2): 332 nM
tumor inhibition rate [2]: 76.7%
IC50 (TTBK2): 8490 nM
effect on centriole duplication ([3]; 0.5 μM): centriole duplications were conspicuously suppressed
effect on centriole numbers ([3]; low concentrations (≤0.25 μM)): increased the centriole numbers
tumor inhibition rate [4]: 82.5%
IC50 (PLK2 [5]): 5730 nM
IC50 (ERBB2/HER2): 539 nM
Kd (PLK1 [6]): > 10000 nM
body weight and hematoxylin and eosin staining vs vehicle (sub-acute toxicity test): no obvious difference
serological and hematological analyses vs vehicle (sub-acute toxicity test): no significant difference
cleaved caspase-3-positive cells (MDA-MB-231 xenografts; vehicle 12.3 ± 5.1): 66 ± 7.3%
Ki67-positive cells (MDA-MB-231 xenografts; vehicle 78 ± 8.1%): 29 ± 6.3%
IC50 (TTBK1): 56700 nM
IC50 (PLK3 [7]): 4120 nM
Kd (PLK3 [8]): > 10000 nM
IC50 (EGFR): 664 nM
Kd (PLK2 [9]): 653 nM
IC50 (FGFR1): 751 nM
inhibitory rate on tumor growth (breast xenograft models; breast xenograft models, 90 mg/kg (p.o)): more than 60%
body weight of experimental animals (breast xenograft models; xenograft mice, 30 and 90 mg/kg p.o. every day): no significant loss in body weight
tumor inhibition rate (MCF-7 tumor xenograft): 68%
Percentage of cells with mitotic catastrophe (MDA-MB-231 [10]): about 58%
Percentage of cells with mitotic catastrophe (MDA-MB-468 [11]): approximately 67%
IC50 (JNK2): 2700 nM
IC50 (Aurora A): 468 nM
IC50 (MDA-MB-435): 154 nM
IC50 (MCF-7): 74 nM
IC50 (BT549): 73 nM
IC50 (MCF-10A): > 10000 nM
IC50 (ZR-75-1): 223 nM
IC50 (MDA-MB-453): 210 nM
IC50 (MDA-MB-231 [12]): 120 nM
IC50 (MDA-MB-468 [13]): 68 nM
IC50 (BT474): 163 nM
IC50 (SKBR-3): 231 nM
IC50 (TNBC cell lines): 68 to 120 nM
IC50 (MDA-MB-436): 80 nM
IC50 (HCC1954): 170 nM
IC50 (ZR-75-30): 184 nM
IC50 (TOPK): 1030 nM
